Literature values in US20070072904A1, “PPAR active compounds” (priority 2005, published 2007).

What was measured:
PPARδ = target: T1, PPARδ (Homo sapiens, UniProt Q03181)
T1 sequence (Q03181 1-441): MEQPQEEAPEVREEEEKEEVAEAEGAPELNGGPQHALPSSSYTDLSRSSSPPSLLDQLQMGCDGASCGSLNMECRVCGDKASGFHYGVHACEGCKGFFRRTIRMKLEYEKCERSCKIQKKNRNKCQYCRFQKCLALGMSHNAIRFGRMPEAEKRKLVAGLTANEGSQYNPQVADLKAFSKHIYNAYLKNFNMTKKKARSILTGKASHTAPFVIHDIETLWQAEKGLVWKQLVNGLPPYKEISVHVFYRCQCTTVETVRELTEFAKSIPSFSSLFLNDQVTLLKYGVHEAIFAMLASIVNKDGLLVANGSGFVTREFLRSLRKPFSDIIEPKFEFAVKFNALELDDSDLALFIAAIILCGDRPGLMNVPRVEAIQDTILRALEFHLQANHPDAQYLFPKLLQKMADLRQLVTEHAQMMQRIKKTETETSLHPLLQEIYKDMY

murine PPARα = target: T2, murine PPARα (Mus musculus, UniProt P23204)
T2 sequence (P23204 1-468): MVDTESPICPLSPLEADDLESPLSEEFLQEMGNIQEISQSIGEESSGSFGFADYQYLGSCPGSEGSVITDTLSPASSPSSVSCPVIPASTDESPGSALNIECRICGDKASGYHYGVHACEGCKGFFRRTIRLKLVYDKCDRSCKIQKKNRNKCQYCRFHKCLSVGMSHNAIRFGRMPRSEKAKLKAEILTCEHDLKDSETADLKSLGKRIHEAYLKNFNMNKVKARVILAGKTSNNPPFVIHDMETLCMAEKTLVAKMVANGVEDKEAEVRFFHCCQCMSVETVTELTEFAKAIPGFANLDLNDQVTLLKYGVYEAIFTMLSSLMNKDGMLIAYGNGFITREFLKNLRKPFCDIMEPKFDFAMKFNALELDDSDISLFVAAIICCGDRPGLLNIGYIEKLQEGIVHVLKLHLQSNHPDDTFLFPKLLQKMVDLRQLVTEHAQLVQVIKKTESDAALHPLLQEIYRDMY

[1] = recent large prospective trial

agonist selectivity for PPARδ over PPARγ (PPARδ)	activity on murine PPARα (murine PPARα)	Structure (SMILES)	reduction in cardiovascular events or death [1]
approximately 30 fold	inactive	CCCc1c(OCCCOc2ccc(OCC(=O)O)cc2)ccc(C(C)=O)c1O [Compound L-165041]	
		Cc1ccc(C)c(OCCCC(C)(C)C(=O)O)c1 [gemfibrozil]	22%
